ChEMBL document CHEMBL1132929 (J Med Chem, 2000)
Peptide text beside a SMILES is read from it.

molecular target: Substance-P receptor (Rana catesbeiana); experiment: SP-induced [Ca2+] mobilization in CHO cells expressing bullfrog Tachykinin receptor 1

Row | SMILES | EC50 [nM]
1 | CC[C@H](C)[C@H](NC(=O)[C@H](Cc1ccccc1)NC(=O)[C@H](CO)NC(=O)[C@H](C)NC(=O)[C@@H]1CCCN1C(=O)[C@H](CC(N)=O)NC(=O)[C@@H](N)Cc1cnc[nH]1)C(=O)NCC(=O)N[C@@H](CC(C)C)C(=O)N[C@@H](CCSC)C(N)=O (H-HNPASFIGLM-NH2) | 14
2 | CSCC[C@H](NC(=O)[C@H](CC(C)C)NC(=O)CNC(=O)[C@H](Cc1ccc(O)cc1)NC(=O)[C@H](Cc1ccccc1)NC(=O)[C@H](CCCNC(=N)N)NC(=O)[C@H](CC(=O)O)NC(=O)[C@@H]1CCCN1C(=O)[C@H](CO)NC(=O)[C@@H]1CCCN1C(=O)[C@@H](N)CCCCN)C(N)=O (H-KPSPDRFYGLM-NH2) | 0.6
3 | CSCC[C@H](NC(=O)[C@H](CC(C)C)NC(=O)CNC(=O)[C@H](Cc1ccc(O)cc1)NC(=O)[C@H](Cc1ccccc1)NC(=O)[C@H](CO)NC(=O)[C@H](CC(=O)O)NC(=O)[C@H](CO)NC(=O)[C@H](CCCCN)NC(=O)[C@@H](N)Cc1ccc(O)cc1)C(N)=O (H-YKSDSFYGLM-NH2) | 14
